Experimental findings from article PMC6627609, “Targeting Quorum Sensing: High-Throughput Screening to Identify Novel LsrK Inhibitors” (International Journal of Molecular Sciences, 2019) are described below.

As a reminder, the inhibition is the drop in the measured response relative to a control, in per cent. What is called IC50 is the concentration that inhibits the measured activity by half. Read a high IC50 as lower potency.

This assay addresses LsrK (Salmonella typhimurium, UniProt Q8ZKQ6). Briefly: biochemical. It is filed as biochemical, S. typhimurium. The following applies: for Inhibition (%): 50 µM.

Structures can show the parent of a compound that is named as a salt.

Sequence of LsrK (Q8ZKQ6 whole entry): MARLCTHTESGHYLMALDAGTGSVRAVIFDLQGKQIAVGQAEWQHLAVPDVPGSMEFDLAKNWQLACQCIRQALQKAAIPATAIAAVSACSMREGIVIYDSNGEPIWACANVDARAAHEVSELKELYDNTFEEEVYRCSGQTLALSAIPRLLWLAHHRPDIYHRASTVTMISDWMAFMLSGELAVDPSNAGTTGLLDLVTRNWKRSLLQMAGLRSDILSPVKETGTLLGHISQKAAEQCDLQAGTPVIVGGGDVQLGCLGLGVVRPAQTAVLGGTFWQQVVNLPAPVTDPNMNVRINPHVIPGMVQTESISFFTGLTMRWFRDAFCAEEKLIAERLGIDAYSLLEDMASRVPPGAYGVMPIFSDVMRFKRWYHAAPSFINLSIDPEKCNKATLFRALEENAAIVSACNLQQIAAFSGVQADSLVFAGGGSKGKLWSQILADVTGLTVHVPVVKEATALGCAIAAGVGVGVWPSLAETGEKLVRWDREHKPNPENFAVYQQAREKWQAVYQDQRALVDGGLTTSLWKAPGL

With `COC(=O)C(N)CS` (centres unmarked) [MECYSTEINE HYDROCHLORIDE], the inhibition at 50 µM turned out to be 112%. `CC(=O)O[C@]1(C(C)=O)CC[C@H]2[C@@H]3C[C@H](C)C4=CC(=O)CC[C@]4(C)[C@H]3CC[C@@]21C` [MEDROXYPROGESTERONE ACETATE]: the inhibition at 50 µM was found to be 1%.

With `Cc1cccc(Nc2ccccc2C(=O)O)c1C` [MEFENAMIC ACID], the inhibition at 50 µM amounted to 1%. On to `OC(c1cc(C(F)(F)F)nc2c(C(F)(F)F)cccc12)C1CCCCN1` (centres unmarked) [MEFLOQUINE], for which the inhibition at 50 µM was 32%. Still for that read-out and setting: the figure for `CNC[C@H](O)[C@@H](O)[C@H](O)[C@H](O)CO` [MEGLUMINE] is 1%; for `COc1ccc2[nH]cc(CCNC(C)=O)c2c1` [MELATONIN] it is 1%.

For the compound `C=C1C[C@H]2[C@@H]3C=C(C)C4=CC(=O)CC[C@]4(C)[C@H]3CC[C@]2(C)[C@@]1(OC(C)=O)C(C)=O` [MELENGESTROL ACETATE], the inhibition at 50 µM was determined as 1%.

On to `OC[C@H]1O[C@@](CO)(O[C@H]2O[C@H](CO)[C@@H](O)[C@H](O)[C@H]2O)[C@@H](O[C@H]2O[C@H](CO)[C@@H](O)[C@H](O)[C@H]2O)[C@@H]1O` [MELEZITOSE], for which the inhibition at 50 µM was 2%. On to `OC[C@H]1O[C@H](OCC2O[C@@H](O)[C@H](O)[C@@H](O)[C@@H]2O)[C@H](O)[C@@H](O)[C@H]1O` (some centres unmarked) [MELIBIOSE], for which the “Inhibition (%)” value is listed as 3. Turning to `Cc1cnc(NC(=O)C2=C(O)c3ccccc3S(=O)(=O)N2C)s1` [MELOXICAM SODIUM], the inhibition at 50 µM stood at 0%. As for `C[N+]1(C)CCCC(OC(=O)C(O)(c2ccccc2)c2ccccc2)C1` (centres unmarked) [MEPENZOLATE BROMIDE], the inhibition at 50 µM was found to be 3%. As to `Cc1ccccc1OCC(O)CO` (centres unmarked) [MEPHENESIN], the inhibition at 50 µM amounted to 1%.

Regarding `Cc1cccc(C)c1NC(=O)C1CCCCN1C` (centres unmarked) [MEPIVACAINE HYDROCHLORIDE], the inhibition at 50 µM was determined as 15%. As for `O=C([O-])c1ccccc1-c1c2cc(Br)c(=O)cc-2oc2[c]([Hg+])c([O-])c(Br)cc12.[Na+].[Na+].[OH-]` [MERBROMIN], the “Inhibition (%)” value stood at 119. Consider `S=c1[nH]cnc2nc[nH]c12` [MERCAPTOPURINE], for which the inhibition at 50 µM was determined as 1%. Same read-out and setting: the figure for `Nc1ccc(O)c(C(=O)O)c1` [MESALAMINE] is 105%; for `CC(=O)Nc1cccc(O)c1` [METACETAMOL] it is 1%. In the case of `C=N[C@@H](C(=O)N[C@@H]1C(=O)N2[C@@H]1SC(C)(C)[C@@H]2C(=O)[O-])c1ccccc1.[Na+]` [METAMPICILLIN SODIUM], the “Inhibition (%)” value is reported as 2. For the compound `CC(C)NCC(O)c1cc(O)cc(O)c1` (centres unmarked) [METAPROTERENOL], the inhibition at 50 µM came to 3%. On to `C[C@H](N)[C@H](O)c1cccc(O)c1` [METARAMINOL BITARTRATE], for which the inhibition at 50 µM was determined as 9%. As to `Cc1cc(C)cc(OCC2CNC(=O)O2)c1` (centres unmarked) [METAXALONE], the inhibition at 50 µM was 0%. As to `CN1C[C@H](CNC(=O)OCc2ccccc2)C[C@@H]2c3cccc4c3c(cn4C)C[C@H]21` [METERGOLINE], the inhibition at 50 µM worked out at 3%. In the case of `C=C1c2cccc(O)c2C(=O)C2=C(O)[C@]3(O)C(=O)C(C(N)=O)=C(O)[C@@H](N(C)C)[C@@H]3[C@@H](O)[C@H]12` [METHACYCLINE HYDROCHLORIDE], the inhibition at 50 µM stood at 97%. With `C1N2CN3CN1CN(C2)C3` [METHENAMINE], the inhibition at 50 µM is 2%. On to `COc1cccc(OC)c1C(=O)N[C@@H]1C(=O)N2[C@@H]1SC(C)(C)[C@@H]2C(=O)O` [METHICILLIN SODIUM], for which the inhibition at 50 µM stood at 1%.

As for `COC(=O)c1cc(O)c(=O)c2c(O)c(O)ccc2c1` [METHYL 7-DESHYDROXYPYROGALLIN-4-CARBOXYLATE], the inhibition at 50 µM was 112%. Turning to `COC(=O)c1c(C)cc(O)cc1O` [METHYL ORSELLINATE], the inhibition at 50 µM amounted to 0%. Turning to `COc1c2c(cc3occ(-c4ccc5c(c4)OCO5)c(=O)c13)OC(C)(C)C=C2` [METHYL ROBUSTONE], the inhibition at 50 µM was 1%.

`Cc1cc(C(C)(C)CC(C)(C)C)ccc1OCCOCC[N+](C)(C)Cc1ccccc1.[Cl-]` [METHYLBENZETHONIUM CHLORIDE]: the “Inhibition (%)” value was determined as 89. Turning to `CN(C)c1ccc2nc3ccc(=[N+](C)C)cc-3sc2c1` [METHYLENE BLUE], the inhibition at 50 µM turned out to be 3%. Same read-out and setting: the same measure for `CC[C@@H](CO)NC(=O)[C@@H]1C=C2c3cccc4[nH]cc(c34)C[C@H]2N(C)C1` [METHYLERGONOVINE MALEATE]: 1%; for `Cc1cc(=O)[nH]c(=S)[nH]1` [METHYLTHIOURACIL]: 4%. For the compound `COc1cc(OC)c(C(C)=O)c(OC)c1` [METHYLXANTHOXYLIN], the “Inhibition (%)” value was 4. In the case of `Cc1ccccc1N1C(=O)c2cc(S(N)(=O)=O)c(Cl)cc2NC1C` (centres unmarked) [METOLAZONE], the inhibition at 50 µM stood at 1%. In the case of `Cc1ncc([N+](=O)[O-])n1CCO` [METRONIDAZOLE], the inhibition at 50 µM turned out to be 0%. For `CN(C)c1ccc(O)c2c1C[C@H]1C[C@H]3[C@H](N(C)C)C(O)=C(C(N)=O)C(=O)[C@@]3(O)C(O)=C1C2=O` [MINOCYCLINE HYDROCHLORIDE], the inhibition at 50 µM came to 71%. On the same count and under the same terms, the same measure for `CO[C@@]12[C@H](COC(N)=O)C3=C(C(=O)C(C)=C(N)C3=O)N1C[C@@H]1N[C@@H]12` [MITOMYCIN C]: 0%. As for `Cl.Cl.O=C1c2c(O)ccc(O)c2C(=O)c2c(NCCNCCO)ccc(NCCNCCO)c21` [MITOXANTHRONE HYDROCHLORIDE], the “Inhibition (%)” value turned out to be 2.

In the case of `NC(=O)C[S+]([O-])C(c1ccccc1)c1ccccc1` (centres unmarked) [MODAFINIL], the inhibition at 50 µM was 1%.

In the case of `CCOC(=O)[N-]c1cn(N2CCOCC2)n[o+]1` [MOLSIDOMINE], the inhibition at 50 µM came out at 0%. For the compound `C[C@H]1C(=O)O[C@@H]2CCN3CC=C(COC(=O)[C@](C)(O)[C@]1(C)O)[C@H]23` [MONOCROTALINE], the inhibition at 50 µM turned out to be 111%. As for `Cc1ccsc1/C=C/C1=NCCCN1C` [MORANTEL CITRATE], the inhibition at 50 µM worked out at 0%. In the case of `O=c1c(O)c(-c2ccc(O)cc2O)oc2cc(O)cc(O)c12` [MORIN], the inhibition at 50 µM came to 154%. For `CO[C@@]1(NC(=O)C(C(=O)O)c2ccc(O)cc2)C(=O)N2C(C(=O)O)=C(CSc3nnnn3C)CO[C@@H]21` (some centres unmarked) [MOXALACTAM DISODIUM], the inhibition at 50 µM stood at 1%. With `CC(=O)Oc1cc(C(C)C)c(OCCN(C)C)cc1C.Cl` [MOXISYLYTE HYDROCHORIDE], the “Inhibition (%)” value is recorded as 2. Regarding `COc1c(-c2coc3cc4c(cc3c2=O)CC(O)C(C)(C)O4)ccc2c1C=CC(C)(C)O2` (centres unmarked) [MUNDULONE], the inhibition at 50 µM is 0%. For `CC1=CC2C(CC1=O)C(C)=CCC2C(C)C` (centres unmarked) [MUUROLLADIE-3-ONE], the inhibition at 50 µM was found to be 1%. Turning to `COc1c(C)c2c(c(O)c1C/C=C(\C)CCC(=O)O)C(=O)OC2` [MYCOPHENOLIC ACID], the inhibition at 50 µM turned out to be 1%. On to `c1cncc(C2=NCCC2)c1` [MYOSMINE], for which the inhibition at 50 µM worked out at 2%. On the same count and under the same terms, the figure for `O=c1c(O)c(-c2cc(O)c(O)c(O)c2)oc2cc(O)cc(O)c12` [MYRICETIN] is 14%. Turning to `CNCc1ccccc1.Cl` [N-METHYLBENZYLAMINE HYDROCHLORIDE], the “Inhibition (%)” value worked out at 0. As for `NC(N)=NC(=O)c1nc(Cl)c(N2CCCCCC2)nc1N` [N.N-HEXAMETHYLENEAMILORIDE], the “Inhibition (%)” value was found to be 1. `CCOc1ccc2ccccc2c1C(=O)N[C@@H]1C(=O)N2[C@@H]1SC(C)(C)[C@@H]2C(=O)O` [NAFCILLIN SODIUM]: the inhibition at 50 µM was 23%.

As for `COc1ccc2cc([C@H](C)CO)ccc2c1` [NAPROXOL], the inhibition at 50 µM was 0%. Turning to `C[C@@H]1C/C=C/C=C/C=C/C=C/[C@H](O[C@@H]2O[C@H](C)[C@@H](O)[C@H](N)[C@@H]2O)C[C@@H]2O[C@](O)(C[C@@H](O)C[C@H]3O[C@@H]3/C=C/C(=O)O1)C[C@H](O)[C@H]2C(=O)O` [NATAMYCIN], the inhibition at 50 µM turned out to be 12%.

In the case of `CC(C)[C@H]1CC[C@H](C(=O)N[C@H](Cc2ccccc2)C(=O)O)CC1` [NATEGLINIDE], the inhibition at 50 µM came to 1%.

`CN1CCOC(c2ccccc2)c2ccccc2C1` (centres unmarked) [NEFOPAM]: the inhibition at 50 µM worked out at 1%.

Regarding `CC(C)=CCC/C(C)=C\CO` [NEROL], the inhibition at 50 µM stood at 1%.

On to `NC(=O)c1cccnc1` [NIACINAMIDE], for which the inhibition at 50 µM is 1%.

For the compound `O=C(CCNNC(=O)c1ccncc1)NCc1ccccc1` [NIALAMIDE], the inhibition at 50 µM came to 3%. On the same count and under the same terms, the same measure for `O=C(Nc1ccc([N+](=O)[O-])cc1Cl)c1cc(Cl)ccc1O` [NICLOSAMIDE]: 0%.

Consider `CN1CCC[C@H]1c1cccnc1.O=C(O)C(O)C(O)C(=O)O.O=C(O)C(O)C(O)C(=O)O` [NICOTINE DITARTRATE], for which the “Inhibition (%)” value is on record as 0. `OCc1cccnc1` [NICOTINYL ALCOHOL TARTRATE]: the inhibition at 50 µM was 1%. Take `COC(=O)C1=C(C)NC(C)=C(C(=O)OC)C1c1ccccc1[N+](=O)[O-]` [NIFEDIPINE]: the inhibition at 50 µM was 98%.

`O=C(O)C1CCCNC1` (centres unmarked) [NIPECOTIC ACID]: the inhibition at 50 µM was determined as 0%. For `COC(=O)C1=C(C)NC(C)=C(C(=O)OCC(C)C)C1c1ccccc1[N+](=O)[O-]` (centres unmarked) [NISOLDIPINE], the inhibition at 50 µM amounted to 154%. As for `CCOC(=O)C1=C(C)NC(C)=C(C(=O)OC)C1c1cccc([N+](=O)[O-])c1` (centres unmarked) [NITRENDIPINE], the inhibition at 50 µM stood at 1%. Turning to `NC(=O)c1cc([N+](=O)[O-])cc([N+](=O)[O-])c1` [NITROMIDE], the “Inhibition (%)” value came out at 1. In the case of `NC[C@H](O)c1ccc(O)c(O)c1` [NOREPINEPHRINE, reference compound], half-maximal inhibition (IC50) was put at 30 µM and the inhibition at 50 µM was 74%. For the compound `C#C[C@]1(O)CC[C@H]2[C@@H]3CCC4=CC(=O)CC[C@@H]4[C@H]3CC[C@@]21C` [NORETHINDRONE], the inhibition at 50 µM was 0%. For `C#C[C@]1(O)CC[C@H]2[C@@H]3CCC4=C(CCC(=O)C4)[C@H]3CC[C@@]21C` [NORETHYNODREL], the inhibition at 50 µM amounted to 1%. `c1ccc2c(c1)[nH]c1cnccc12` [NORHARMAN]: the inhibition at 50 µM turned out to be 1%. Consider `COc1ccc2c(c1OC)C(=O)O[C@@H]2[C@H]1c2c(cc3c(c2OC)OCO3)CCN1C` [NOSCAPINE HYDROCHLORIDE], for which the inhibition at 50 µM was determined as 1%.
